Data reported in patent US11802128B2, “Azetidine and pyrrolidine PARP1 inhibitors and uses thereof” (Xinthera, Inc., priority 2021, dated 2023).

Key:
PARP1 = PARP1 (Homo sapiens (Human), UniProt P09874); assay: Biochemical fluorescent polarization (FP) assay, displacement of PARPi-FL; assay type: binding; details: 20 nM protein, 3 nM PARPi-FL, 4 h at room temperature
Procedure: (§1) The assay was performed utilizing the following method:
(§2) 100% DMSO was used for the high (with protein) and low (without protein) control samples. 20 nL of compound or DMSO alone was added to individual assay plate wells.
(§3) PARP1 and PARP2 protein were expressed, purified, and diluted in assay buffer containing 50 mM Tris pH 8.0, 0.001% Triton X-100, 10 mM MgCl2, 150 mM NaCl to a final concentration of 20 nM. The PARPi-FL was then added at a final concentration of 3 nM.
(§4) The assay plate is centrifuged at 1000 rpm for 1 min and incubated for 4 h at room temperature.
(§5) The fluorescent polarization is read using an Envision plate reader using the following settings: […]

PARP2 = PARP2 (Homo sapiens (Human), UniProt Q9UGN5); assay: as above; assay type: binding; details: 20 nM protein, 3 nM PARPi-FL, 4 h at room temperature; read-out: IC50 FP PARP2
Chain of PARP2 (Q9UGN5 whole entry): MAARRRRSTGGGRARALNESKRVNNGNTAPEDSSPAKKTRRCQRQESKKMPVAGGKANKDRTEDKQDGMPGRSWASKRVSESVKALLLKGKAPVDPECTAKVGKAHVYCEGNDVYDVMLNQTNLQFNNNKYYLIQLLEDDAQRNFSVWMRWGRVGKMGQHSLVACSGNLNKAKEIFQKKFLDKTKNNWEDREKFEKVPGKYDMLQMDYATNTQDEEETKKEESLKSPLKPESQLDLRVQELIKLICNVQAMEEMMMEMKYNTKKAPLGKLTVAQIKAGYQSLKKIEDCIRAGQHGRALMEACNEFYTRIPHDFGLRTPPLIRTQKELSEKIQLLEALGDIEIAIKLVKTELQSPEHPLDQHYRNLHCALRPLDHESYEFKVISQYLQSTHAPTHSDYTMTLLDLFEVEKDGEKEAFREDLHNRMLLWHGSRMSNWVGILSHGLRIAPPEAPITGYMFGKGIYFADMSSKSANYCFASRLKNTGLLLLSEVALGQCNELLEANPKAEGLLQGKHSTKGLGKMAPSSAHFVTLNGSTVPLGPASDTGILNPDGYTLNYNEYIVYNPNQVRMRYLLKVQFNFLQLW
Procedure: as §1, §2, §3, §4, §5

[1] = test system: MDA-MB-436 (mutated BRCA1) cells; assay: Cell growth inhibition assay (CellTiter-Glo cell viability, 7 days); assay type: cell-based; details: Homo sapiens, 168 h, MDA-MB-436, 7 days
Summary of the method: (§6)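 Cells were seeded at 50 (DLD-1 parental), 200 (DLD-1 BRCA2−/−) or 500 (MDA-MB-436) cells/well onto 1:3 compound dilutions, top final 10 or 30 μM. Culture ran 7 days at 37 °C, 5% CO2. ATP was read by CellTiter-Glo 2.0, and IC50 was fitted from growth inhibition.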

DLD-1 BRCA2(−/−) cells = assay: as above; assay type: cell-based; details: Homo sapiens, 168 h
Summary of the method: as §6

DLD-1 parental cells = assay: as above; assay type: cell-based; details: Homo sapiens, 168 h
Summary of the method: as §6

Chain of PARP1 (P09874 whole entry): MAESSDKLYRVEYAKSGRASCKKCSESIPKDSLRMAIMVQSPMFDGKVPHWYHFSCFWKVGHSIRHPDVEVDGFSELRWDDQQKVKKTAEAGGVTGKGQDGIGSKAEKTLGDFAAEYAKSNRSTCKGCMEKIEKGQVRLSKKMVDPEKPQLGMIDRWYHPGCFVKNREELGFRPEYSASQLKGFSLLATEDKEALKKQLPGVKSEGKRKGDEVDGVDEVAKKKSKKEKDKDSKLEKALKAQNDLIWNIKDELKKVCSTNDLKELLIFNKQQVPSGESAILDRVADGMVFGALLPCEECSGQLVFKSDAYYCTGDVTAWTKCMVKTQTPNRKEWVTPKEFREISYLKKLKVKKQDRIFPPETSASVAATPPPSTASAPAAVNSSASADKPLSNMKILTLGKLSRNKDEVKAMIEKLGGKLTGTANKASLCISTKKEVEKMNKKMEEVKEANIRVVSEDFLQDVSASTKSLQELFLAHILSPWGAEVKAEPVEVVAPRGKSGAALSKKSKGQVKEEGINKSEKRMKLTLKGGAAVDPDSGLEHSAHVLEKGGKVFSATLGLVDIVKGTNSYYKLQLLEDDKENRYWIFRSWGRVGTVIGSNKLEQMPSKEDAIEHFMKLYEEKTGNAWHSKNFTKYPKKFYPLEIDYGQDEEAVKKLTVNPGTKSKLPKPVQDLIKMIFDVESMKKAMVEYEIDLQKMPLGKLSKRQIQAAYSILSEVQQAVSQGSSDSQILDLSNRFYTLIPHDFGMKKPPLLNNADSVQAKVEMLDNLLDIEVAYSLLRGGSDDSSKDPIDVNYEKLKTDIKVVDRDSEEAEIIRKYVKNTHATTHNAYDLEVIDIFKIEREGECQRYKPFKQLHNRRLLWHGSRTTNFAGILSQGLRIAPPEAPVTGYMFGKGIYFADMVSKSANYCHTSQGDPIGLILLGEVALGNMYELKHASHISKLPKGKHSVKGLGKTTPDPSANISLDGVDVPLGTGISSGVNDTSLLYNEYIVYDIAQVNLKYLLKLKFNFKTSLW

Row | Compound | IC50 (PARP1) | IC50 (PARP2) | EC50 [1] | EC50 (DLD-1 BRCA2(−/−) cells) | EC50 (DLD-1 parental cells)
1 | CCc1cc2ncc(CN3CC[C@@H](Oc4ccc(C(=O)NC)nc4)C3)cc2[nH]c1=O [Example 2, 5-{[(3R)-1-[(7-ethyl-6-oxo-5H-1,5-naphthyridin-3-yl)methyl]pyrrolidin-3-yl]oxy}-N-methylpyridine-2-carboxamide] | 4.2 nM | > 10000 nM | 1.6 nM | 3.3 nM | > 30000 nM
2 | CCc1nc2cc(F)c(CN3CC(Oc4ccc(C(=O)NC)nc4)C3)cc2[nH]c1=O [Example 30] | 7.7 nM | > 100000 nM | 47 nM | 15 nM | 
3 | CCc1cc2ncc(CN3C[C@H](Oc4ccc(C#N)cc4)[C@H]3C)cc2[nH]c1=O [Example 48] | 6.2 nM | 3500 nM | 3.2 nM | 5.7 nM | 
4 | CCc1cc2ncc([C@H](C)N3C[C@H](Oc4ccc(C(=O)NC)nc4)[C@H]3C)cc2[nH]c1=O (single isomer, unassigned) [Example 55, 5-{[(2R,3S)-1-[(1R*)-1-(7-ethyl-6-oxo-5H-1,5-naphthyridin-3-yl)ethyl]-2-methylazetidin-3-yl]oxy}-N-methylpyridine-2-carboxamide] | 6.4 nM | > 100000 nM | 12 nM | 38 nM | 
5 | Cc1cc2ncc(CN3C[C@H](Oc4ccc(C(=O)N[C@@H]5CC5(F)F)nc4)[C@H]3C)cc2[nH]c1=O (single isomer, unassigned) [Example 90] | 8.5 nM | 3100 nM | 1.8 nM | 2.8 nM | 
6 | Cc1cc2ncc(CN3C[C@H](Oc4ccc(C(=O)N[C@H]5CC5(F)F)nc4)[C@H]3C)cc2[nH]c1=O (single isomer, unassigned) [Example 89] | 7.2 nM | 9600 nM | 1.1 nM | 1.8 nM | 
7 | C[C@@H]1[C@@H](Oc2ccc(C(=O)NC3CC3)nc2)CN1Cc1cnc2cc(C(F)F)c(=O)[nH]c2c1 [Example 75, N-cyclopropyl-5-{[(2R,3S)-1-{[7-(difluoromethyl)-6-oxo-5H-1,5-naphthyridin-3-yl]methyl}-2-methylazetidin-3-yl]oxy}pyridine-2-carboxamide] | 4 nM | 5200 nM | 0.72 nM | 1.2 nM | 
8 | Cc1cc2ncc(CN3CCC(Oc4ccc(C(=O)NCC(F)F)nc4)C3)cc2[nH]c1=O (stereo in doubt) [Example 10, N-(2,2-difluoroethyl)-5-{[(3R)-1-[(7-methyl-6-oxo-5H-1,5-naphthyridin-3-yl)methyl]pyrrolidin-3-yl]oxy}pyridine-2-carboxamide] | 6.8 nM | > 100000 nM | 6.8 nM | 8.8 nM | 
9 | CCc1cc2ncc(CN3CC[C@@H](Oc4ccc(C#N)cn4)C3)cc2[nH]c1=O [Example 29] | 11 nM | 72000 nM | 140 nM | 78 nM | 
10 | CCc1cc2ncc(CN3CC(Oc4ccc(C#N)nc4)C3)cc2[nH]c1=O [Example 24] | 9.1 nM | 17000 nM | 24 nM | 13 nM | 
11 | Cc1cc2ncc(CN3C[C@H](Oc4ccc(C(=O)N[C@H]5C[C@H](F)C5)nc4)[C@H]3C)cc2[nH]c1=O [Example 82] | 4.5 nM | 6800 nM | 2.1 nM | 3.1 nM | 
12 | Cc1cc2ncc(CN3CC[C@@H](Oc4cnc(C(=O)NC5CC5)c(F)c4)C3)cc2[nH]c1=O [Example 26] | 12 nM | > 100000 nM | 60 nM | 55 nM | 
